Measured values reported in patent US20230117034A1, “PYRAZOLOTRIAZINES” (Bayer Aktiengesellschaft, priority 2019, published 2023).

Tests used:
CDK2/CycE = biological target: T1, CDK2/CycE (Homo sapiens, UniProt P24941); assay: CDK2/CycE kinase assay (TR-FRET, 2 mM ATP); format: biochemical; settings: 2 mM ATP (high ATP); median; read-out: CDK2/CyclinE, 2 mM ATP (high ATP), IC50 (median)
T1 construct: purchased ProQinase GmbH (Freiburg, Germany); host or cells: insect cells (Sf9)
Excerpt: CDK2/CycE-inhibitory activity of compounds of the present invention was quantified employing the CDK2/CycE TR-FRET assay as described in the following paragraphs.
Recombinant fusion proteins of GST and human CDK2 and of GST and human CycE, expressed in insect cells (Sf9) and purified by Glutathion-Sepharose affinity chromatography, were purchase from ProQinase GmbH (Freiburg, Germany). As substrate for the kinase reaction biotinylated peptide biotin-Ttds-YISPLKSPYKISEG (C-terminus in amid form) was used which can be purchased e.g. form the company JERINI peptide technologies (Berlin, Germany).
For the assay 50 nanoL of a 100 fold concentrated solution of the test compound in DMSO was pipetted into a black low volume 384 well microtiter plate or a black 1536 well microtiter plate (both Greiner Bio-One, Frickenhausen, Germany), 2 microL of a solution of CDK2/CycE in aqueous assay buffer [50 millimol/L Tris/HCl pH 8.0, 10 millimol/L MgCl2, 1.0 millimol/L dithiothreitol, 0.1 millimol/L sodium ortho-vanadate, 0.01% (v/v) Nonidet-P40 (Sigma)] were added and the mixture was incubated for 15 min at 22° C. to allow pre-binding of the test compounds to the enzyme before the start of the kinase reaction. Then the kinase reaction was started by the addition of 3 microL of a solution of adenosine-tri-phosphate (ATP, 3.33 millimol/L=>final conc. in the 5 microL assay volume is 2 millimol/L) and substrate (1.25 micromol/L=>final conc. in the 5 microL assay volume is 0.75 micromol/L) in assay buffer and the resulting mixture was incubated for a reaction time of 25 min at 22° C. The concentration of CDK2/CycE was adjusted depending of the activity of the enzyme lot and was chosen appropriate to have the assay in the linear range, typical concentrations were in the range of 10 ng/ml. The reaction was stopped by the addition of 3 microL of a solution of TR-FRET detection reagents (0.333 micromol/L streptavidine-XL665 [Cisbio Bioassays, Codolet, France] and 1.67 nanomol/L anti-RB(pSer807/pSer8l 1)-antibody from BD Pharmingen [#558389] and 2 nanomol/L LANCE EU-W1024 labeled anti-mouse IgG antibody [Perkin-Elmer, product no. AD0077, as an alternative a Terbium-cryptate-labeled anti-mouse IgG antibody from Cisbio Bioassays can be used]) in an aqueous EDTA-solution (167 millimol/L EDTA, 0.2% (w/v) bovine serum albumin in 100 millimol/L HEPES pH 7.5).
(§1) The resulting mixture was incubated 1 h at 22° C. to allow the formation of complex between the phosphorylated biotinylated peptide and the detection reagents. Subsequently the amount of phosphorylated substrate was evaluated by measurement of the resonance energy transfer from the Eu-chelate to the streptavidine-XL. Therefore, the fluorescence emissions at 620 nm and 665 nm after excitation at 350 nm was measured in a TR-FRET reader, e.g. a Pherastar (BMG Labtechnologies, Offenburg, Germany) or a Viewlux (Perkin-Elmer). The ratio of the emissions at 665 nm and at […] was taken as the measure for the amount of phosphorylated substrate. The data were normalised (enzyme reaction without inhibitor=0% inhibition, all other assay components but no enzyme=100% inhibition).

CDK12/CycK = CDK12/CycK (Homo sapiens, UniProt Q9NYV4); assay: CDK12/CycK high ATP kinase assay (TR-FRET, 2 mM ATP); format: biochemical; settings: 2 mM ATP (high ATP); median; read-out: CDK12/CyclinK, 2 mM ATP (high ATP), IC50-[mol/l] (median)
Sequence of CDK12/CycK (Q9NYV4 with tags, fused parts or gaps): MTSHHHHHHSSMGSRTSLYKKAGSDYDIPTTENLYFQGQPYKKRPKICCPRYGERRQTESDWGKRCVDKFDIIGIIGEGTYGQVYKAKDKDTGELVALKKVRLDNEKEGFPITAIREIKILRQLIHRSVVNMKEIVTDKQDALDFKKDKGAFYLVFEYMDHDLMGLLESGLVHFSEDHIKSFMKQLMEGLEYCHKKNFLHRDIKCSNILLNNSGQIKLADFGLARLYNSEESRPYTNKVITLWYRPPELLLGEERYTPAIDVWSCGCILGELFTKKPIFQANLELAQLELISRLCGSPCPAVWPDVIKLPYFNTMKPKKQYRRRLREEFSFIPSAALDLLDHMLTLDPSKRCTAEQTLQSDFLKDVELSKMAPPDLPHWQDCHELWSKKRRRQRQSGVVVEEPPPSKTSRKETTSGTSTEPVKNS
Sequence of CDK12/CycK (O75909 1-300 partner limits assumed): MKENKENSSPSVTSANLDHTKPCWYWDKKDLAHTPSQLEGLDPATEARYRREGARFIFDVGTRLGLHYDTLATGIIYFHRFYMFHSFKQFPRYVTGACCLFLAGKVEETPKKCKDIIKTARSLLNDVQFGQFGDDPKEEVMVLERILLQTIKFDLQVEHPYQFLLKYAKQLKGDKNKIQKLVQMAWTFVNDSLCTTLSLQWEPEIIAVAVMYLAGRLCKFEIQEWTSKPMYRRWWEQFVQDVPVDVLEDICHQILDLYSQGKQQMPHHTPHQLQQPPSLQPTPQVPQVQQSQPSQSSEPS
Procedure: In the context of the present invention, the term “IC50 CDK12 hATP” refers to the IC50 values obtained according to the assay described in this section (2.2) herein below, i.e. the IC50 values for the inhibition of CDK12 at high (2 mM) ATP.
CDK12/CycK-inhibitory activity of compounds of the present invention at 2 millimol/L adenosine-tri-phosphate (ATP) was quantified employing the TR-FRET (TR-FRET=Time Resolved Fluorescence Energy Transfer) based CDK12/CycK activity inhibition assay as described in the following paragraphs.
A complex of human recombinant CDK12 and human recombinant CycK (both N-terminally His-tagged, expression and purification as described above) was used as enzyme. As substrate for the kinase reaction biotinylated peptide biotin-Ahx-KFELLPTPPLSPSRRSGL (C-terminus in amid form) was used which can be purchased e.g. form the company Biosyntan (Berlin-Buch, Germany).
For the assay 50 nanoL of a 100 fold concentrated solution of the test compound in DMSO was pipetted into either a black low volume 384 well microtiter plate or a black 1536 well microtiter plate (both Greiner Bio-One, Frickenhausen, Germany), 2 microL of a solution of CDK12/CycK in aqueous assay buffer [25 millimol/L HEPES pH 7.5, 20 millimol/L MgCl2, 5 millimol/L β-glycerophosphate, 2 millimol/L EGTA, 1.0 millimol/L dithiothreitol, 0.01% (v/v) Nonidet-P40 (Sigma), 0.01% (w/v) bovine serum albumin] were added and the mixture was incubated for 15 min at 22° C. to allow pre-binding of the test compounds to the enzyme before the start of the kinase reaction. Then the kinase reaction was started by the addition of 3 microL of a solution ATP (3.33 millimol/L=>final conc. in the 5 microL assay volume is 2 millimol/L) and substrate (1.67 micromol/L=>final conc. in the 5 microL assay volume is 1 micromol/L) in assay buffer and the resulting mixture was incubated for a reaction time of 60 min at 22° C. The concentration of CDK12/CycK was adjusted depending of the activity of the enzyme lot and was chosen appropriate to have the assay in the linear range, typical concentrations were about 0.75 nanomol/L. The reaction was stopped by the addition of 3 microL of a solution of TR-FRET detection reagents (125 nanomol/L streptavidine-XL665 [Cisbio Bioassays, Codolet, France] and 0.67 nanomol/L anti-Phospho-c-Myc (Ser 62) (E1J4K)-antibody from Cell Signalling [#13748] and 2 nanomol/L LANCE EU-W1024 labeled anti-rabbit IgG antibody [Perkin-Elmer, product no. 0083]) in an aqueous EDTA-solution (133 millimol/L EDTA, 0.27% (w/v) bovine serum albumin in 66.7 millimol/L HEPES pH 7.5).
as §1, with “Pherastar FS” for “Pherastar”

| IC50 (CDK2/CycE) [µM] | IC50 (CDK12/CycK) [µM] | Compound |
| --- | --- | --- |
| 4.7 | 6.09 | O=S1(=O)CCN(c2nc(NCc3nc4ccccc4[nH]3)n3ncc(Br)c3n2)CC1 [Example 166, 4-(4-{[(1H-benzimidazol-2-yl)methyl]amino}-8-bromopyrazolo[1,5-a][1,3,5]triazin-2-yl)-1 lambda^6-thiomorpholine-1,1-dione] |
| > 20 | > 20 | Fc1ccccc1-c1cnn2c(NCc3nc4ccccc4[nH]3)nc(N3CCOCC3)nc12 [Example 95, N-[(1H-benzimidazol-2-yl)methyl]-8-(2-fluorophenyl)-2-(morpholin-4-yl)pyrazolo[1,5-a][1,3,5]triazin-4-amine] |
| 8.97 | 0.489 | COc1ccc2[nH]c(CNc3nc(N4C[C@@H](C)O[C@@H](C)C4)nc4c(Br)cnn34)nc2c1 [Example 124, 8-bromo-2-[(2R, 6S)-2,6-dimethylmorpholin-4-yl]-N-[(5-methoxy-1H-benzimidazol-2-yl)methyl]pyrazolo[1,5-a][1,3,5]triazin-4-amine] |
| 4.63 | 1.02 | Clc1ccc2[nH]c(CNc3nc(N4CCOCC4)nc4c(Br)cnn34)nc2c1 [Example 162, 8-bromo-N-[(5-chloro-1H-benzimidazol-2-yl)methyl]-2-(morpholin-4-yl)pyrazolo[1,5-a][1,3,5]triazin-4-amine] |
| 2.28 | 1.74 | Brc1cnn2c(NCc3nc4ccccc4[nH]3)nc(N3CCOCC3)nc12 [Example 4, N-[(1H-benzimidazol-2-yl)methyl]-8-bromo-2-(morpholin-4-yl)pyrazolo[1,5-a][1,3,5]triazin-4-amine] |
| 12.6 | 10.8 | Brc1cnn2c(NCc3nc4ccccc4[nH]3)nc(N3CCN4CCC[C@H]4C3)nc12 [Example 148, N-[(1H-benzimidazol-2-yl)methyl]-8-bromo-2-[(8aS)-hexahydropyrrolo[1,2-a]pyrazin-2 (1 H)-yl]pyrazolo[1,5-a][1,3,5]triazin-4-amine] |
| 5.3 | 4.46 | Cc1ccc2[nH]c(CNc3nc(N4CCN(C)CC4)nc4c(Br)cnn34)nc2c1 [Example 158, 8-bromo-N-[(5-methyl-1H-benzimidazol-2-yl)methyl]-2-(4-methylpiperazin-1-yl)pyrazolo[1,5-a][1,3,5]triazin-4-amine] |
| > 19.8 | 10.8 | C[C@@H]1CN(c2nc(NCc3nc4ccccc4[nH]3)n3ncc(Br)c3n2)C[C@H](C)N1 [Example 142, N-(1H-benzimidazol-2-ylmethyl)-8-bromo-2-[(3R,5S)-3,5-dimethylpiperazin-1-yl]pyrazolo[1,5-a][1,3,5]triazin-4-amine] |
| 9.28 | 3.74 | CN1CCN(c2nc(NCc3nc4ccccc4[nH]3)n3ncc(Br)c3n2)C(CO)C1 (centres unmarked) [Example 155, [1-[4-(1H-benzimidazol-2-ylmethylamino)-8-bromo-pyrazolo[1,5-a][1,3,5]triazin-2-yl]-4-methyl-piperazin-2-yl]methanol] |
| 7.77 | 6.62 | Brc1cnn2c(NCc3nnc(-c4ccccc4)[nH]3)nc(N3CCNCC3)nc12.O=CO [Example 119, 8-bromo-N-[(5-phenyl-4H-1,2,4-triazol-3-yl)methyl]-2-piperazin-1-yl-pyrazolo[1,5-a][1,3,5]triazin-4-amine formate] |
| 3.12 | 4.97 | OCC1CCN1c1nc(NCc2nc3ccccc3[nH]2)n2ncc(Br)c2n1 (centres unmarked) [Example 147, [1-[4-(1H-benzimidazol-2-ylmethylamino)-8-bromo-pyrazolo[1,5-a][1,3,5]triazin-2-yl]azetidin-2-yl]methanol] |
| > 20 | 10.2 | CN1CCN(c2nc(NCc3nc4c(F)cccc4[nH]3)n3ncc(C4CC4)c3n2)CC1 [Example 165, 8-cyclopropyl-N-[(4-fluoro-1H-benzimidazol-2-yl)methyl]-2-(4-methylpiperazin-1-yl)pyrazolo[1,5-a][1,3,5]triazin-4-amine] |
| 6.14 | 12.6 | N=S1(=O)CCN(c2nc(NCc3nc4ccccc4[nH]3)n3ncc(Br)c3n2)CC1 [Example 145, 4-(4-{[(1H-benzimidazol-2-yl)methyl]amino}-8-bromopyrazolo[1,5-a][1,3,5]triazin-2-yl)-1-imino-1lambda^6-thiomorpholin-1-one] |
| 4.36 | 2.66 | Cc1cccc2[nH]c(CNc3nc(N4CCOCC4)nc4c(Br)cnn34)nc12 [Example 150, 8-bromo-N-[(4-methyl-1H-benzimidazol-2-yl)methyl]-2-(morpholin-4-yl)pyrazolo[1,5-a][1,3,5]triazin-4-amine] |
| 13.2 | 10.9 | C[C@@H]1CN(c2nc(NCc3nnc(-c4ccccc4)[nH]3)n3ncc(Br)c3n2)C[C@H](C)N1C [Example 125, 8-bromo-N-[(5-phenyl-4H-1,2,4-triazol-3-yl)methyl]-2-[(3R,5S)-3,4,5-trimethylpiperazin-1-yl]pyrazolo[1,5-a][1,3,5]triazin-4-amine] |
| 4.47 | 7.17 | C[C@H]1CN(c2nc(NCc3nnc(-c4cccc(F)c4)[nH]3)n3ncc(Br)c3n2)CCN1C [Example 154, 8-bromo-2-[(3S)-3,4-dimethylpiperazin-1-yl]-N-{[5-(3-fluorophenyl)-4H-1,2,4-triazol-3-yl]methyl}pyrazolo[1,5-a][1,3,5]triazin-4-amine] |
